The test system of assay [1] is T1, 64′-OMT.
T1 construct: gene 6-OMT; pET-21d, no vector-derived peptides, E. coli BL21(DE3), purified; subunit ca. 40 kDa, native ca. 63 kDa, dimer
Kind of assay: [3H]methyl transfer assay, double-reciprocal plots with secondary replots. It counts as biochemical, Coptis japonica. The following applies: 30 °C.

In assay [2] the target is T1, 64′-OMT. Kind of assay: [3H]methyl transfer assay, inhibition kinetics. The format is biochemical, Coptis japonica. The following applies: competitive with AdoMet; varied substrate AdoMet, methyl acceptor norlaudanosoline; 30 °C.
Another assay concerns the target T2, 6-OMT (Coptis japonica, UniProt Q9LEL6).
T2 construct: full length, recombinant in E. coli, crude lysate; dimer
Nature of the assay: LC/MS product analysis. The format is biochemical. The following applies: 1 mM acceptor, 1 mM AdoMet, pH 7.5, 30 °C; presumed 3'-O-methylation; crude E. coli lysate.

T2 sequence (Q9LEL6 whole entry): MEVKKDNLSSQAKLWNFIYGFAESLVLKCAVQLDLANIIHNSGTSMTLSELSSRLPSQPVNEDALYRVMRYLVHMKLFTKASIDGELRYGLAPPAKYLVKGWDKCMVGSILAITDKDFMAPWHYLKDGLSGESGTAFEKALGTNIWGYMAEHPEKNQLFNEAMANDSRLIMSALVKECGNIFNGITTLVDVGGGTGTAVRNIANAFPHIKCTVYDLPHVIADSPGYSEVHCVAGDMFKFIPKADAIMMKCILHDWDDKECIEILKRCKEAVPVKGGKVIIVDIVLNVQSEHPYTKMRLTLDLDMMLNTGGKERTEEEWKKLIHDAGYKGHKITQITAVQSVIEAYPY

The term Km denotes the substrate concentration at which the rate is half of its maximum. In the case of `Oc1ccc(CC2NCCc3cc(O)c(O)cc32)cc1O` (racemic) [(R,S)-norlaudanosoline], in the assay with 64′-OMT [1] (co-substrate [3H]AdoMet varied), the Km came to 109 µM.

What is called Ki is the equilibrium dissociation constant of an inhibitor or competing ligand from its target. A higher Ki goes with lower affinity. Regarding `Nc1ncnc2c1ncn2[C@@H]1O[C@H](CSCC[C@H](N)C(=O)O)[C@@H](O)[C@H]1O` [AdoHcy], at 64′-OMT [2], the Ki was 70 µM.

On to `C[S+](CC[C@H](N)C(=O)O)C[C@H]1O[C@@H](n2cnc3c(N)ncnc32)[C@H](O)[C@@H]1O` (stereo partly shown) [AdoMet], for which the Km in the assay with 64′-OMT [1] (co-substrate (R,S)-norlaudanosoline varied, labelled compound) turned out to be 187 µM.

Take `COc1cc2c(cc1O)[C@H](Cc1ccc(O)c(O)c1)N(C)CC2` [3′-hydroxy-N-methylcoclaurine]: at 6-OMT, the LC/MS product analysis was 6-OMT showed a weak but evident peak that was distinct.

The record behind these values is paper PMC3066540, “Molecular characterization of O-methyltransferases involved in isoquinoline alkaloid biosynthesis in Coptis japonica” (Proceedings of the Japan Academy. Series B, Physical and …, 2010).
